Assay results published in ChEMBL document CHEMBL1201862, “PubChem BioAssay data set” (2004).
The source made the active and inactive calls.

Tests used:
Protein skinhead-1 = molecular target: T1, Protein skinhead-1 (Caenorhabditis elegans, UniProt P34707); type: functional
T1 sequence (P34707 whole entry): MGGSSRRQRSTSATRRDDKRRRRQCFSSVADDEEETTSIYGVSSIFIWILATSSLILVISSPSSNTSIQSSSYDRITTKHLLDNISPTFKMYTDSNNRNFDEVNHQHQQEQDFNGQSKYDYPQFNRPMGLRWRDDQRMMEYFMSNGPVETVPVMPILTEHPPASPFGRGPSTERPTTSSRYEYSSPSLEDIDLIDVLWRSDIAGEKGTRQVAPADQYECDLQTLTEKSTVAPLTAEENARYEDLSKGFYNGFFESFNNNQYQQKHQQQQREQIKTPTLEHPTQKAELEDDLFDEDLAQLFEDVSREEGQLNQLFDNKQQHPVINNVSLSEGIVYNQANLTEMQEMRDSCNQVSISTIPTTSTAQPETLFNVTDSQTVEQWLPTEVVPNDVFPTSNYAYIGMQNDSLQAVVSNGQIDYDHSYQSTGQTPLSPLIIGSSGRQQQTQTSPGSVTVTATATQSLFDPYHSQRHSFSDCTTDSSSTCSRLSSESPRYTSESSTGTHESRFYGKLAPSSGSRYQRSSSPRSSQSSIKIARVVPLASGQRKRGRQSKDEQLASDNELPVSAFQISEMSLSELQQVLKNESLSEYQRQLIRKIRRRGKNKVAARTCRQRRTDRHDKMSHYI

Estrogen receptor = molecular target: T2, Estrogen receptor (Homo sapiens, UniProt P03372);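 also: potency for inhibiting coactivator peptide recruitment to the receptor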
T2 sequence (P03372 whole entry): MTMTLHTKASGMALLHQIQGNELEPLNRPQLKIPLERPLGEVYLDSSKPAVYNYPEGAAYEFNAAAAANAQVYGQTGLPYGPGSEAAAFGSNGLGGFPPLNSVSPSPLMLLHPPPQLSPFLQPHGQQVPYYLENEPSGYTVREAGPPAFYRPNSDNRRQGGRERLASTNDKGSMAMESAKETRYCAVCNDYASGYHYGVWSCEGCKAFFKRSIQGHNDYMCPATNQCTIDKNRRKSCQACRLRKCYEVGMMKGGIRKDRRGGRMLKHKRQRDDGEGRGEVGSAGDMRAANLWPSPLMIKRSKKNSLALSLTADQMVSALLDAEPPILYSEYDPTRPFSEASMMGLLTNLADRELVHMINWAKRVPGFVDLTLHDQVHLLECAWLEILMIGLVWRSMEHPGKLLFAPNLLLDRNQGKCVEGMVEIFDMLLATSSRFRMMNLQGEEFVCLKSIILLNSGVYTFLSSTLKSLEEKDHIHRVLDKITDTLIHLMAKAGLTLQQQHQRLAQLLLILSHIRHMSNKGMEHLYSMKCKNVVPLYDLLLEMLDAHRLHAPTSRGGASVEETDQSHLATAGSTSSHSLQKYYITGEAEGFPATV

Vero = assay: host cell cytotoxicity of antiviral hits, dose response, cytotoxicity control for West Nile virus antiviral project, secondary assay (AID 1650); type: functional; conditions: Chlorocebus sabaeus
Procathepsin L = Procathepsin L (Homo sapiens, UniProt P07711); assay: cathepsin L inhibitors, dose response, counter-screen for M1/M17 aminopeptidase inhibitor project, biochemical, QFRET, 1536-well (AID 2214)
Aspartyl aminopeptidase = molecular target: T3, Aspartyl aminopeptidase (Plasmodium falciparum 3D7, UniProt Q8I2J3); assay: Counterscreen for inhibitors of M1 and M17 aminopeptidases: QFRET-based biochemical high throughput dose response assay for inhibitors of the Plasmodium falciparum M18 Aspartyl Aminopeptidase (PFM18AAP). [Related PubChem assays: 1619 (Screening assay (M17LAP inhibitors).), 1445 (Screening assay (M1AAP inhibitors).)]
T3 sequence (Q8I2J3 whole entry): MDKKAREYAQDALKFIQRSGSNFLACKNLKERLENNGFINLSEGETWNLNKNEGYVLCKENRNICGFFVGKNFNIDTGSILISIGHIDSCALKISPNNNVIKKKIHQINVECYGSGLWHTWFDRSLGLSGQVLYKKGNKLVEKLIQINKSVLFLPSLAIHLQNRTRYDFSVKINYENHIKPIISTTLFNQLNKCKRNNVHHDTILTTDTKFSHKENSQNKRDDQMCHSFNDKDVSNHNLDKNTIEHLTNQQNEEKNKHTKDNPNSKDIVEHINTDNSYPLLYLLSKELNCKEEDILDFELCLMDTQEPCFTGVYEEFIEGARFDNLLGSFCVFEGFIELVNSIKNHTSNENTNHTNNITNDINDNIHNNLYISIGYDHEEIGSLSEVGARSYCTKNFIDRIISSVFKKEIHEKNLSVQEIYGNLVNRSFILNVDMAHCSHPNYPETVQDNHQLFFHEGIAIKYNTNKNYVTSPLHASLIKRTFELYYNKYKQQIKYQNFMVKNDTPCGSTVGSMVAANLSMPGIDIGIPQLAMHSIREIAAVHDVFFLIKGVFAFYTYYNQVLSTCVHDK

Genome polyprotein = Genome polyprotein (dengue virus type 2, UniProt P29990); assay: Dengue-2 NS5 methyltransferase inhibitors, primary screen, biochemical, confirmation dose response (AID 588689); type: functional
Leucine aminopeptidase = molecular target: T4, Leucine aminopeptidase (Plasmodium falciparum 3D7, UniProt Q8IL11); assay: P. falciparum M17LAP inhibitors, primary screen, biochemical, fluorogenic H-Leu-NHMec substrate, 1536-well (AID 1619); type: functional
T4 sequence (Q8IL11 whole entry): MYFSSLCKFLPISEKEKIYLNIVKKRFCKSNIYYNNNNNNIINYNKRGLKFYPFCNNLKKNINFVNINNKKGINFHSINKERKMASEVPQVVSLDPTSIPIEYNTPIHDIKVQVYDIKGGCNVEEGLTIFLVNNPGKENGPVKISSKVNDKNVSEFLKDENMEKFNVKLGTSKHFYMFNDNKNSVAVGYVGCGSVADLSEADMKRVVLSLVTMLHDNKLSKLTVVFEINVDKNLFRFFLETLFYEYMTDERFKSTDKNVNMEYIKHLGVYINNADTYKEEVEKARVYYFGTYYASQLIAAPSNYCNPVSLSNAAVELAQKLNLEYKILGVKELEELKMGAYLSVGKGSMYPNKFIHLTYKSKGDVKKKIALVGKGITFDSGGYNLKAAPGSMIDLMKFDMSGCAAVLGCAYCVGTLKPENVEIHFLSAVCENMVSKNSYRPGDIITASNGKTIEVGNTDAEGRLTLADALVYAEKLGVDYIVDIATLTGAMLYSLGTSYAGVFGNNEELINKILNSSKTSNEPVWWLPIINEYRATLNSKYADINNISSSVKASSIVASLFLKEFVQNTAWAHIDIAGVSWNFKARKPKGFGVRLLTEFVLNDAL

[1] = molecular target: T5, Short transient receptor potential channel 4 (Mus musculus, UniProt Q9QUQ5); assay: mouse TRPC4 channel inhibitors, dose response, cell-based, HEK293 TRPC4/mu-opioid, Fluo-4 calcium (AID 434942); type: functional;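 also: potency of inhibitors blocking the TRPC4 calcium response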
T5 sequence (Q9QUQ5 whole entry): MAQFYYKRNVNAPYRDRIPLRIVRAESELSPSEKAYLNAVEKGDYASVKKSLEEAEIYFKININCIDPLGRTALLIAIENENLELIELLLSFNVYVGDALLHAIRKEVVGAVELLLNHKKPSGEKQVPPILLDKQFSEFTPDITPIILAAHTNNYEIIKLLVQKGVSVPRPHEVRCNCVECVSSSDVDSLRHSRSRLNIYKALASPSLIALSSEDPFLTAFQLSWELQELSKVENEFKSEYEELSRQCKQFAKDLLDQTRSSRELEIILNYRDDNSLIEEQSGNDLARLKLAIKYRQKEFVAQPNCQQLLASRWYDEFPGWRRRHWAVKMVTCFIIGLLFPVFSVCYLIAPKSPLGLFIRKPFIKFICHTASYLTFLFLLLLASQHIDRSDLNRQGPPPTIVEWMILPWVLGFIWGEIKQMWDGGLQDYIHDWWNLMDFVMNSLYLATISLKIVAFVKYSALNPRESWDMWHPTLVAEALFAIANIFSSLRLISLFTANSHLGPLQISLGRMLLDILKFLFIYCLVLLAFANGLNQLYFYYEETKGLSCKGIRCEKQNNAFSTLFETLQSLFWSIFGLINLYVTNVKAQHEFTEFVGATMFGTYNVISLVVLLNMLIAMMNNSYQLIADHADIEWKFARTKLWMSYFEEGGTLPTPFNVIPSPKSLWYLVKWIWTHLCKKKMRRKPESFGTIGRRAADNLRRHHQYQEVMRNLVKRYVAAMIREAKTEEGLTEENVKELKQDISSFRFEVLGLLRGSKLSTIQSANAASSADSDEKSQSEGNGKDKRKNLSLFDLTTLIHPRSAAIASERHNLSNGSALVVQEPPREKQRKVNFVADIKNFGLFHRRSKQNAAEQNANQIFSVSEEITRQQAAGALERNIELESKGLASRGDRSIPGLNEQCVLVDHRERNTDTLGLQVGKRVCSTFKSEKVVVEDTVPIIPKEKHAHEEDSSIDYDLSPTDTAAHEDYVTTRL

[2] = CRF-BP/CRF-R2 complex antagonists, dose response, cell-based, uHTS hits, 384-well (AID 651639); type: functional, Homo sapiens; conditions: read-out: IC50_Mean
[3] = molecular target: T6, Corticotropin-releasing factor receptor 2/Corticotropin-releasing factor-binding protein (Homo sapiens, UniProt P24387+Q13324); assay: activators of CRF receptor 2 with binding protein – uHTS hits, confirmation (AID 602473); type: functional; conditions: read-out: EC50_Mean
T6 sequence (Q13324 whole entry): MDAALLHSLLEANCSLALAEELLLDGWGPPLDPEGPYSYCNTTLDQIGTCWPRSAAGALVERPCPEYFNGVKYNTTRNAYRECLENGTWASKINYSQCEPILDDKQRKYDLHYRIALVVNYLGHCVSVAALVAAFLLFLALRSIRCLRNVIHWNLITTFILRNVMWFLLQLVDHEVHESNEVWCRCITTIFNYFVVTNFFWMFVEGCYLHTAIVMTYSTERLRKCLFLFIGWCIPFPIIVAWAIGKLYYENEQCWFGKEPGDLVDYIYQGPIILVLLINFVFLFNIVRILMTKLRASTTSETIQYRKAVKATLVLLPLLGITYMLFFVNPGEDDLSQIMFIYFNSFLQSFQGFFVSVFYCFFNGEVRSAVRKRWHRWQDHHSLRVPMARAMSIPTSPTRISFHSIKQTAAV
T6 sequence (P24387 whole entry): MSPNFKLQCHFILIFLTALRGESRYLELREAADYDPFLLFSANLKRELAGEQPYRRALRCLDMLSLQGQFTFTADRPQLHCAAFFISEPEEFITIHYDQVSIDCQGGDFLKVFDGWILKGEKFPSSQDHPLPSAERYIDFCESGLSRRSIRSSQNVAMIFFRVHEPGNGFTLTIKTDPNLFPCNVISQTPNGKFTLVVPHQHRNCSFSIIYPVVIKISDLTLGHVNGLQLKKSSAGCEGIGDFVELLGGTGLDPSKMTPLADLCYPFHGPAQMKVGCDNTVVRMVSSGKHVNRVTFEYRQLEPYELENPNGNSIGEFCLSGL

[4] = molecular target: T6, Corticotropin-releasing factor receptor 2/Corticotropin-releasing factor-binding protein; assay: Dose Response confirmation of uHTS hits for small molecule antagonists of the CRF-binding protein and CRF-R2 receptor complex.; type: functional; conditions: read-out: IC50_Mean
Estrogen receptor beta = Estrogen receptor beta (Homo sapiens, UniProt Q92731);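 also: recombinant ER-beta bound to coactivator SRC1 peptide in presence of estradiol agonist; inhibitors block coactivator peptide binding and lower the FRET signal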
[5] = THP-1 cell cytotoxicity, dose response, cytotoxicity control for Vif-APOBEC3G degradation inhibitor project, THP-1 cells (AID 1117359); type: functional; conditions: Human immunodeficiency virus 1, THP-1
INS1 = assay: beta cell apoptosis inhibitors, cytokine rescue, dose response, luminescence, retest (AID 449756); type: functional, cell-based; conditions: Rattus norvegicus;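 also: cell death triggered by IL-1 beta plus TNF-alpha plus IFN-gamma mixture; protective hits raise ATP signal compared with cytokine alone wells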

Procathepsin L, sequence (P07711 whole entry): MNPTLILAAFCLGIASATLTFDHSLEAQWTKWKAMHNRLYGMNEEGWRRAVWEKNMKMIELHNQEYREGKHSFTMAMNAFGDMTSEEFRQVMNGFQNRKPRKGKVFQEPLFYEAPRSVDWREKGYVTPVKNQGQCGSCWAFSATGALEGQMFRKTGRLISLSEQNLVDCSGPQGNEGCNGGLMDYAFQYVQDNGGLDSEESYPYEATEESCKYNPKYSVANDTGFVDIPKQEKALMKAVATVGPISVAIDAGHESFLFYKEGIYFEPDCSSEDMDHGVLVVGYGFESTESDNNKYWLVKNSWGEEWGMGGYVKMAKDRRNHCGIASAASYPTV
Genome polyprotein, sequence (P29990 2492-3391 limits assumed): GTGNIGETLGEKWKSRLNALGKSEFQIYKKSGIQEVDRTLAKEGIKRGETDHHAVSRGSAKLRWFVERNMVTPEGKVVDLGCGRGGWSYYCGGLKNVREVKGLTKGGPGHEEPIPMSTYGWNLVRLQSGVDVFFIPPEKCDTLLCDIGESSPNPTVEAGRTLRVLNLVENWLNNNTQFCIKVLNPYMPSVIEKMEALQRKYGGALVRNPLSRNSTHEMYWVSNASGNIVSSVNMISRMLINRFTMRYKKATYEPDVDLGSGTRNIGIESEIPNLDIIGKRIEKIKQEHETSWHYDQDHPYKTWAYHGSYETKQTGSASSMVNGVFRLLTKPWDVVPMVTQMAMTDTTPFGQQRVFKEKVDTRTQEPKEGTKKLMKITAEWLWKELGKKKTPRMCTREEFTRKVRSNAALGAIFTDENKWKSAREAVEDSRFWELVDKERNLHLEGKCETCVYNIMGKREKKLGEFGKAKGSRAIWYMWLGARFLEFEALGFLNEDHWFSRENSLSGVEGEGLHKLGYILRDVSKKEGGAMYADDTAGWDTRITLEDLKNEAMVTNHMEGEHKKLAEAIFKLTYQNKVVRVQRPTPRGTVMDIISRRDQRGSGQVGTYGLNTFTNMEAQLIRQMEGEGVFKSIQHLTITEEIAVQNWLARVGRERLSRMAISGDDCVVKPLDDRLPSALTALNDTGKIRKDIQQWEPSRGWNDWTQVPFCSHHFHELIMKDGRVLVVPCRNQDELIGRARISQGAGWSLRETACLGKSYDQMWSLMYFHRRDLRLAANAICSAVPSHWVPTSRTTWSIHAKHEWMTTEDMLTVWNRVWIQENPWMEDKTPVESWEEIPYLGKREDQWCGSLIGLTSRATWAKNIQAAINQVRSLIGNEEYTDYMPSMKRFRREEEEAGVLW
Estrogen receptor beta, sequence (Q92731 whole entry): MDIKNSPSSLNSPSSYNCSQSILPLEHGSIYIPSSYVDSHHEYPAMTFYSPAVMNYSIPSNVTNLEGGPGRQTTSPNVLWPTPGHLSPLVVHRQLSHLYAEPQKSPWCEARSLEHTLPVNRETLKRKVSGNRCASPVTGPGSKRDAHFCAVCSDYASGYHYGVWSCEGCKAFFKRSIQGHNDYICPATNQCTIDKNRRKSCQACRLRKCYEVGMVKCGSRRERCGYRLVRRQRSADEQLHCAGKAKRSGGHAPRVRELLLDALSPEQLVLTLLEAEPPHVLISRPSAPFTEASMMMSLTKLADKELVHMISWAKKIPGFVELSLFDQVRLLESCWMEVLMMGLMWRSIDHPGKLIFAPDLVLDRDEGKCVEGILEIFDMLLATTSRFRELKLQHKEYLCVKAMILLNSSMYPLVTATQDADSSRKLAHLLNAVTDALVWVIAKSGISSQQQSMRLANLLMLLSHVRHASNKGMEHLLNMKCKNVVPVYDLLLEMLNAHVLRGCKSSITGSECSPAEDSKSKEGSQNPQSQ

With `Cc1cc(Cl)cc(C)c1OCCCCN1CCOCC1` as the compound, how does the IC50 (Protein skinhead-1) read?
Its IC50 is 38.9 µM (active).

And the IC50 (Estrogen receptor)?
Its IC50 is > 50 µM (not active).

With `CCc1ccc(-c2nc(CN3CCC(C(=O)N4CCN(c5ccccc5)CC4)CC3)c(C)o2)cc1` as the compound, how does the CC50 (Vero) read?
The CC50 was 16.3 µM (active).

Which IC50 (Procathepsin L) does the source give for `CCOC(=O)c1c(-c2cccc(C)c2)csc1NC(=O)C1CC=CCC1C(=O)O` (stereo unspecified) here?
Its IC50 is > 59.6 µM (not active).

What about the IC50 (Aspartyl aminopeptidase) of the same compound?
The IC50 was > 73.5 µM (not active).

What about the IC50 (Genome polyprotein) of the same compound?
Its IC50 is 61 µM (active).

And the IC50 (Leucine aminopeptidase)?
Its IC50 is 5.96 µM (active).

And the EC50 [1]?
Its EC50 is 7.5 µM (active).

What does the source list for `COc1cc(NC(=O)CSc2nc3c(C)ccc(C)c3cc2C)c(C(=O)O)cc1OC`?
IC50 [2]: > 20 µM (inactive); IC50 (Procathepsin L): 59.3 µM (not active); IC50 (Aspartyl aminopeptidase): > 73.5 µM (not active); IC50 (Leucine aminopeptidase): < 1 µM (active); EC50 [3]: > 53 µM (inactive); IC50 [4]: 10.1 µM (active)

With `Cc1ccc(C(=O)CSC2=C(C#N)C(c3ccco3)CC(=O)N2)c(C)c1` (stereo unspecified) as the compound, how does the IC50 (Estrogen receptor) read?
The IC50 was 26.5 µM (active).

What about the IC50 (Estrogen receptor beta) of the same compound?
Its IC50 is 16.1 µM (active).

For `Cc1cc(O)nc(SCC(=O)Nc2cccc(C(F)(F)F)c2)n1`, which IC50 (Procathepsin L) is on record?
Its IC50 is > 59.6 µM (not active).

What about the IC50 (Aspartyl aminopeptidase) of the same compound?
Its IC50 is > 73.5 µM (not active).

And the IC50 (Leucine aminopeptidase)?
Its IC50 is 7.15 µM (active).

What does the source list for `CCCOC(=O)/C(C(=N)NCc1ccccc1)=C(/O)OCCC`?
CC50 [5]: > 40 µM (active); AC50 (INS1): 97 µM (active)
